{"source": "patent US20220305093A1", "about": "“NK-LYSIN PEPTIDE COMPOSITIONS AND METHODS FOR THEIR USE AS ANTIMICROBIAL/ANTIVIRAL AGENTS” (priority 2021, published 2022)", "key": {"[1]": {"test_system": "S. typhimurium (ATCC 14028)", "format": "cell-based, Salmonella typhimurium", "settings": "discs on MH agar, overnight", "method": "Screening of NK-lysin peptides was carried out against gram-negative S. typhimurium (ATCC 14028) bacteria. Overnight cultivation of the bacteria was carried out at a temperature of 3TC. A bacterial suspension was created in 10 mM sodium phosphate buffer pH 7.0 having a density of (2×10^6 CFU ml^−1) and plated on Muller-Hinton (MH) agar plates to inoculate. After the plates were dry, antibiotics discs of various concentrations (0 to 150 μg/ml) of antibiotic or NK-lysin peptides were applied to the surface of the inoculated plates. The plates were cultured overnight at 3TC and observed for restriction of growth by determining the diameter of bacterial-free zones surrounding each disc. Ceftazidime antibiotic was employed as a positive control."}, "[2]": {"test_system": "Streptococcus mutans (isolate)", "assay": "microbe, parasite or virus in culture", "method": "(§1) The minimum inhibitory concentration (MIC) is defined as the lowest concentration of an antimicrobial ingredient or agent that is bacteriostatic (prevents the visible growth of bacteria).\n(§2) Mueller Hinton broth (MHB) comprising 0.01% v/v acetic acid (Sigma Aldrich; St Louis, Mo.) and 0.2% w/v bovine serum albumin (Sigma Aldrich). Equal concentrations of bacteria were plated in wells of standard tissue culture microplates at a density of 0.5×10^8 CFU ml^−1 in MHB per well. Treatments were equivalent volumes (50 μl) of NK-lysin peptides in concentrations of 0 to 150 μg/ml, or no NK-lysin peptides for control wells. The treated plates were incubated at […] and optical densities were determined for each well at 0 minutes, 1, 2 and 3 hours and after an overnight incubation."}, "[3]": {"test_system": "Salmonella typhimurium (ATCC 14028)", "assay": "microbe, parasite or virus in culture", "settings": "Salmonella enterica", "method": "as §1, §2"}, "[4]": {"test_system": "Escherichia coli (ATCC 11775)", "assay": "microbe, parasite or virus in culture", "settings": "Escherichia coli, ATCC11775", "method": "as §1, §2"}, "[5]": {"test_system": "Klebsiella oxytoca (ATCC 49131)", "assay": "microbe, parasite or virus in culture", "method": "as §1, §2"}, "[6]": {"test_system": "Pseudomonas aeruginosa (ATCC 9027)", "assay": "microbe, parasite or virus in culture", "method": "as §1, §2"}, "[7]": {"test_system": "Shigella sonnei (ATCC 25931)", "assay": "microbe, parasite or virus in culture", "method": "as §1, §2"}, "[8]": {"test_system": "Klebsiella pneumoniae (patient isolate)", "assay": "microbe, parasite or virus in culture", "method": "as §1, §2"}, "[9]": {"test_system": "Streptococcus pyogenes (ATCC 19615)", "assay": "microbe, parasite or virus in culture", "method": "as §1, §2"}, "[10]": {"test_system": "gram-positive and gram-negative bacteria", "assay": "organism not typed", "from_the_text": "The gram-positive bacterial strains utilized were Streptococcus pyogenes (ATCC 19615) and Streptococcus mutans (isolate obtained from a patient at King Abdul-Aziz hospital). The gram-negative bacterial strains used included Salmonella typhimurium (ATCC 14028), Escherichia coli (ATCC 11775), Pseudomonas aeruginosa (ATCC 9027), Klebsiella oxytoca (ATCC 49131), Shigella sonnei (ATCC 25931), and Klebsiella pneumoniae (patient isolate). Tryptic soy broth (TSB) was used to grow all bacterial strain overnight, after which the bacteria were washed using phosphate-buffered saline (PBS, NaCl 8 g/L, KCl 0.2 g/L, Na2HPO4 1.4 g/L, KH2PO4 0.24 g/L), and then diluted in the same buffer with 1/1000 TSB to an OD600 nm of 0.08-0.1 (1×10^8) colony-forming units (CFU)/ml, which was determined after performing retrospective plate counts on tryptic soy agar. Unless otherwise noted, the experiments in the following examples employed this inoculum preparation apart from when minimum inhibitory and bactericidal concentrations were determined, which employed cells in Muller Hinton broth. […]\nMueller Hinton broth (MHB) comprising 0.01% v/v acetic acid (Sigma Aldrich; St Louis, Mo.) and 0.2% w/v bovine serum albumin (Sigma Aldrich). […] The treated plates were incubated at […] and optical densities were determined for each well at 0 minutes, 1, 2 and 3 hours and after an overnight incubation. […]"}, "[11]": {"settings": "Pseudomonas aeruginosa, ATCC9027"}, "[12]": {"settings": "Streptococcus pyogenes, ATCC19615"}}}
{"smiles": "CC(C)(O/N=C(\\C(=O)N[C@@H]1C(=O)N2C(C(=O)[O-])=C(C[n+]3ccccc3)CS[C@H]12)c1csc(N)n1)C(=O)O", "note": "[ceftazidime, reference compound]", "values": [{"measurement": "clear zone diameter", "setting": "[1]", "value": "~21", "unit": "mm"}]}
{"smiles": "NC[C@H]1O[C@H](O[C@H]2[C@H](O)[C@@H](O[C@H]3O[C@H](CO)[C@@H](O)[C@H](N)[C@H]3O)[C@H](N)C[C@@H]2N)[C@H](O)[C@@H](O)[C@@H]1O", "note": "[Kanamycin, kanamycin, reference compound]", "values": [{"measurement": "MIC", "setting": "[2]; St. mutans (isolate)", "value": "62.5 ± 0.023", "unit": "µg/mL"}, {"measurement": "MBC", "setting": "[2]; Streptococcus mutans", "value": "62.5 ± 0.23", "unit": "µg/mL"}, {"measurement": "MIC", "setting": "[2]; Streptococcus mutans", "value": 62.5, "unit": "µg/mL"}, {"measurement": "MBC", "setting": "[3]", "value": 62.5, "unit": "µg/mL"}, {"measurement": "MIC", "setting": "[3]", "value": 62.5, "unit": "µg/mL"}, {"measurement": "MBC", "setting": "[4]", "value": 15.6, "unit": "µg/mL"}, {"measurement": "MIC", "setting": "[4]", "value": "15.62 ± 0.011", "unit": "µg/mL"}, {"measurement": "MIC", "setting": "[5]; K. oxytoca ATCC 49131", "value": "31.25 ± 0.00", "unit": "µg/mL"}, {"measurement": "MBC", "setting": "[5]; Klebsiella oxytoca, ATCC49131", "value": 31.2, "unit": "µg/mL"}, {"measurement": "MIC", "setting": "[5]; Klebsiella oxytoca, ATCC49131", "value": 31.2, "unit": "µg/mL"}, {"measurement": "MIC", "setting": "[6]; P.aeruginosa ATCC 9027", "value": "62.5 ± 0.00", "unit": "µg/mL"}, {"measurement": "MBC", "setting": "[6]; [11]", "value": 62.5, "unit": "µg/mL"}, {"measurement": "MIC", "setting": "[6]; [11]", "value": 62.5, "unit": "µg/mL"}, {"measurement": "MIC", "setting": "[7]; Sh. sonnei ATCC 25931", "value": "7.81 ± 0.026", "unit": "µg/mL"}, {"measurement": "MBC", "setting": "[7]; Shigella sonnei, ATCC25931", "value": "7.81 ± 0.026", "unit": "µg/mL"}, {"measurement": "MIC", "setting": "[7]; Shigella sonnei, ATCC25931, Sh. sonnei ATCC 25931", "value": 7.8, "unit": "µg/mL"}, {"measurement": "MIC", "setting": "[8]; K.Pneumonia (isolate)", "value": "31.25 ± 0.00", "unit": "µg/mL"}, {"measurement": "MBC", "setting": "[8]; Klebsiella pneumoniae", "value": 31.2, "unit": "µg/mL"}, {"measurement": "MIC", "setting": "[8]; Klebsiella pneumoniae", "value": 31.2, "unit": "µg/mL"}, {"measurement": "MIC", "setting": "[9]; St. pyogenes ATCC 19615", "value": "62.5 ± 0.00", "unit": "µg/mL"}, {"measurement": "MBC", "setting": "[9]; [12]", "value": 62.5, "unit": "µg/mL"}, {"measurement": "MIC", "setting": "[9]; [12]", "value": 62.5, "unit": "µg/mL"}, {"measurement": "MIC", "setting": "[10]", "value": "7.8 to 62.5", "unit": "µg/mL"}]}
